Common to all, as to assay type: cell-based
Assay [1] concerns T1, isoprene monooxygenase (IsoMO) of Rhodococcus sp. AD45.
T1 construct: gene isoA; native enzyme in whole cells of isoprene-grown bacteria; four-component soluble diiron monooxygenase, a2b2g2 oxygenase; with Isoprene monooxygenase oxygenase component subunit gamma; Isoprene monooxygenase Rieske-type ferredoxin component; Isoprene monooxygenase oxygenase component subunit beta
Briefly: headspace substrate depletion, whole cells, non-linear regression. To be noted: whole isoprene-grown cells; 50 mM phosphate pH 7.0, 30°C; O2 co-substrate; read-out: K m(app). An excerpt:
headspace substrate depletion, whole cells, non-linear regression on isoprene monooxygenase (IsoMO) of Rhodococcus sp. AD45

Assay [2] has the same test system. Briefly: inhibition of isoprene uptake, headspace gas chromatography. To be noted: whole cells; about 5 μM isoprene in liquid; 50 mM phosphate pH 7.0, 30°C; alkyne in DMSO.
The test system of assay [3] is T2, isoprene monooxygenase (IsoMO) of Variovorax sp. WS11.
T2 construct: gene isoA; native enzyme in whole fermentor-grown cells; iso genes on a megaplasmid; with Isoprene monooxygenase oxygenase component subunit gamma; Isoprene monooxygenase Rieske-type ferredoxin component; Isoprene monooxygenase oxygenase component subunit beta
Briefly: headspace isoprene depletion by gas chromatography, whole cells. The following applies: whole fermentor-grown cells; O2 co-substrate; read-out: K m(app). An excerpt:
headspace isoprene depletion by gas chromatography, whole cells on isoprene monooxygenase (IsoMO) of Variovorax sp. WS11

For the compound `C=CC` [propylene], the Km in assay [1] came out at 2 ± 0.8 µM.

Consider `C#CCCCCCC` [1‐octyne], for which, in assay [2], the “% inhibition at 50 μM” value is listed as 74%.

As for `C=CC(=C)C` [isoprene, 2‐methyl‐1,3‐butadiene], the Km in assay [3] is 10.5 ± 3.9 µM; in assay [1], 4 ± 1.3 µM.

These data come from PMC10667655 (Environmental Microbiology Reports, 2023).
